# According to patent US11884710B2, “Peptide compounds and methods of use in wound healing” (priority 2013, dated 2024):
# Read-outs that look alike come from different tables or passages of the source. Square brackets hold non-standard residues; d marks the D form. Ends that are not written are not given here. PEG2 = NCCOCCOCCC(=O)O
# Experiments:
# [1] = system: Pseudomonas aeruginosa ATCC 27853; assay: In vitro bactericidal assay, P. aeruginosa ATCC 27853 (FIGS. 12-14); format: cell-based; conditions: for bactericidal effectiveness concluded by extrapolation: even at substantially lower concentrations of the peptide
# Experimental: (§1) Each of the test peptides was used at 25, 12.5 6.25, and 3.12 μM. The gentamicin was used at 4 μg/ml. 1×10^6/ml Pseudomonas aeruginosa ATCC® 27853™ (American Type Culture Collection, Manassas, Va.) were incubated with the peptides, negative buffer control (tryptone saline), and positive control gentamicin for 180 minutes at pH 7.2. 50 μl aliquots were plated out on agar plates and incubated overnight. Colony forming units were counted after overnight incubation and CFU/ml calculated.
# as §1, with “12.5,” for “12.5”, “5.5.” for “7.2.”
# FIG. 14 is a comparison of bactericidal activity of CAP37 peptides 120-146WR (SEQ ID NO:30), 120-146WH (SEQ ID NO:31), 120-146QR (SEQ ID NO:28), 120-146QH (SEQ ID NO:29), 120-146QR-5RMP (SEQ ID NO:32), and 120-146QH-5RMP (SEQ ID NO:33) for Pseudomonas aeruginosa ATCC® 27853™ (American Type Culture Collection, Manassas, Va.). 1×10^6/ml Pseudomonas aeruginosa ATCC® 27853™ were incubated with the peptides at 150, 75, and 37.5 μg/ml and negative buffer control (tryptone saline) for 180 minutes at pH 5.5. 50 μl aliquots were plated out on agar plates and incubated overnight. Colony forming units were counted after overnight incubation and CFU/ml calculated.
# (§2) For FIGS. 10-13, in vitro bactericidal assays were performed using a starting inoculum of 1×10^6 CFU/ml of the bacterial suspension. The CFU remaining at the end of the 60-180 minute incubation was determined, and the data was plotted as log reduction in CFU/ml.
# (§3) In particular, each of the test peptides (CAP37 peptides 120-146WR, 120-146WH, and 95-122 (SEQ ID NOS:30, 31, and 26, respectively)) was used at 25, 12.5, 6.25, and 3.12 μM. Gentamicin was used at 4 μg/ml. 1×10^6/ml Acinetobacter baumannii ATCC® BAA-747™ or Pseudomonas aeruginosa ATCC® 27853™ (American Type Culture Collection, Manassas, Va.) were incubated with the peptides, negative buffer control (tryptone saline), and positive control gentamicin at pH 5.5 or 7.2. A 60 minute incubation was used for Acinetobacter baumannii ATCC® BAA-747™, while a 180 minute incubation was used for Pseudomonas aeruginosa ATCC® 27853™. 50 μl aliquots were plated out on agar plates and incubated overnight. Colony forming units were counted after overnight incubation and CFU/ml calculated.
# For FIG. 14, 1×10^6/ml Pseudomonas aeruginosa ATCC® 27853™ were incubated with each of the test peptides (CAP37 peptides 120-146WR, 120-146WH, 120-146QR, 120-146QH, 120-146QR-5RMP, and 120-146QH-5RMP (SEQ ID NOS:30, 31, 28, 29, 32, and 33, respectively)) at 150, 75, and 37.5 μg/ml, or negative buffer control (tryptone saline), for 180 minutes at pH 5.5. 50 μl aliquots were plated out on agar plates and incubated overnight. Colony forming units were counted after overnight incubation and CFU/ml calculated.
# [2] = system: Acinetobacter baumannii ATCC BAA-747; assay: In vitro bactericidal assay, A. baumannii ATCC BAA-747 (FIGS. 10-11); format: cell-based; conditions: 60 minutes, peptides 3.12-25 μM, gentamicin 4 μg/ml
# Experimental: as §1, with “6.25” for “6.25,”, “Acinetobacter baumannii” for “Pseudomonas aeruginosa”, “BAA-747™” for “27853™”, “60” for “180”, “5.5.” for “7.2.”
# as §1, with “6.25” for “6.25,”, “Acinetobacter baumannii” for “Pseudomonas aeruginosa”, “BAA-747™” for “27853™”, “60” for “180”
# as §2, §3
# [3] = system: human corneal epithelial cell (HCEC); assay: HCEC chemotaxis, modified Boyden chemotaxis chamber; format: cell-based; conditions: for HCEC migration compared with the whole CAP37 protein, in words: 120-146QH at 10^−6 M and 10^−8 M, 120-146QR concentration not stated; for migration of HCECs vs buffer control, in words: 3 hours at 37° C.
# Experimental: The effect of buffer control (0.1% BSA in Gey's buffer), heparin binding-epidermal growth factor (HB-EGF, 50 ng/ml), recombinant CAP37 (rCAP37, 250 ng/ml), 120-146QH (10^−12M, 10^−10 M, 10^−8 M, 10^−6M, and 10^−4M,) and 120-146QR (10^−10M, 10^−8M, 10^−6M, and 10^−4M) on HCEC chemotaxis was determined by the modified Boyden chemotaxis chamber method. HCEC chemotaxis was measured in response to HB-EGF, rCAP37, and peptides 120-146QH (SEQ ID NO:29) and 120-146QR (SEQ ID NO:28) after incubation for 3 hours at 37° C. Chemotaxis is expressed as a percent migration. The buffer control (no chemoattractant) is arbitrarily assigned the value of 100% migration. Data are expressed as means±SEM and are calculated from 6 observations for each test point. **P<0.01 by Wilcoxon signed-rank test as compared to controls.
# Chemotaxis: Chemotaxis assays were performed using the modified Boyden chemotaxis chamber assay. Peptide 120-146QH was used at 10^−4 M, 10^−6 M, 10^−8 M, 10^−10 M, and 10^−12 M, and peptide 120-146QR was used at 10^−4 M, 10^−6 M, 10^−8M, and 10^−10M.
# [4] = system: Pseudomonas clinical isolate B64; assay: BIOSCREEN C growth assay, peptide plus antibiotic combinations; format: cell-based, Pseudomonas aeruginosa; conditions: for MIC: Pseudomonas
# Experimental: FIGS. 28A and 28B show the effect of BCC002-5R-MP (SEQ ID NO:21) in combination with Cefotaxime on MIC using Pseudomonas clinical isolate B64. Cefotaxime (Cefo) and peptide combinations included a constant amount of Cefotaxime (2.81 μg/ml) with suboptimal amounts of peptide (0, 0.34, 1.01, and 3.04 μg/ml). […] FIG. 28B is a histogram showing Fractional area (FA), which is an indication of the MIC.
# FIG. 29B is a histogram showing Fractional area (FA), which is an indication of the MIC.
# FIGS. 30A and 30B show the effect of BCC02-5R-MP (SEQ ID NO:21) in combination with Levofloxacin (Levo) and peptide combinations included a constant amount of Levofloxacin (3.6 μg/ml) with suboptimal amounts of peptide (0, 0.34, 1.01, 3.04 μg/ml). […] FIG. 30B is a histogram showing Fractional area (FA), which is an indication of the MIC.
# The peptide and antibiotics were set up in the wells of the microtiter plate at starting ratios of MIC equivalents of antibiotic:peptide at 3:1, 1:1, and 1:3. They were serially diluted to concentrations well below suboptimal/sublethal levels of the antibiotic and peptide. The organism was added (1×10^5 CFU/well), the BIOSCREEN C™ assay (Growth Systems USA, Piscataway, N.J.) was performed, and data was collected over 24 hours.
# [5] = system: full thickness excisional wounds; assay: Swine full thickness excisional dermal wound model; format: in vivo; conditions: for Mean Wound Healing (%): topical 3 mg/ml, 0.20 ml daily
# Experimental: In this Example, peptide compounds of the presently disclosed inventive concepts were evaluated as to their activity on the dermal wound healing process in a clinically relevant swine full thickness excisional wound model. Three different peptide formulations (Group B, Peptide 95-122 (SEQ ID NO:26); Group C, Peptide 120-146WH (SEQ ID NO:31); and Group D, Peptide 120-146QH-5RMP (SEQ ID NO:33)) were each evaluated at the same concentration (3 mg/ml). Sterile saline served as the control (Group A).
# (§4) Full thickness excisional wounds were induced on the dorsum of swine (N=3) using a 1.0 cm biopsy punch. Treatments were administered (0.20 ml) to each wound (N=6 wounds per group), and the wounds were dressed with standard occlusive dressing ([…]™, 3M Corporation, St. Paul, Minn.). Treatments were reapplied daily and dressings changed. Clinical wound healing observations and wound area (2 mm) measurements were performed on days 0, 3, 5, 7, 10, and 14 post-wounding. Wound area (2 mm) data were expressed as percentage (%) of wound healing. Animals were terminated on day 14 with wounds harvested and processed for histological evaluation. […] All peptide formulation treatment groups healed faster with greater rate of closure and re-epithelialization over time, as compared to the saline control (Group A).
# [6] = system: full thickness excisional wounds; assay: Histopathology of swine dermal wounds; format: in vivo; design: Inflammation, mean histopathology score / Angiogenesis, mean histopathology score / Granulation, mean histopathology score / Epithelization, mean histopathology score: scale not given here
# Experimental: The characteristics that were measured are required to indicate features of a well-healed wound. Inflammation should be low and re-epithelialization high.
# as §4
# The histology correlated with the clinical observations. […] There were minimal differences in the amount or character of granulation tissue, inflammation, and angiogenesis. All the wounds were well filled and vascularized.
# [7] = antibiotic alone, 1×10^5 CFU/well, 24 hours, read-out: MIC
# [8] = wounds harvested on day 14, 3 mg/ml
compound,measurement,setting,value
(AEEP)-(AEEP)-RRRRGTRCQVAGWGSWHSGGRLSRFPRFVNVR ([PEG2][PEG2]RRRRGTRCQVAGWGSWHSGGRLSRFPRFVNVR) [120-146WH-5RMP],predicted killing capabilities,[1],superior killing capabilities
same,bactericidal effectiveness concluded by extrapolation,[1],highly effective
gentamicin [reference compound],"bactericidal activity, in words",[2]; pH 5.5,unable to kill the bacteria
same,"bactericidal activity, in words",[2]; pH 7.2,active against the bacteria
same,"bactericidal activity, in words","[1]; 120-146WR at 25 μM, gentamicin 4 μg/ml",highly active
same,reduction of CFU/ml,"[1]; pH 5.5, 180 minutes, gentamicin 4 μg/ml",2 log
same,"bactericidal activity, in words","[1]; pH 5.5, 180 minutes, peptides 3.12-25 μM, gentamicin 4 μg/ml",not as effective as the peptides
GTRCQVAGWGSQRSGGRLSRFPRFVNV (listed as Homo sapiens) [Peptide 120-146QR],"activity in in vitro killing assays, in words","[1]; FIG. 14, pH 5.5, 180 minutes",relatively inactive
same,"HCEC migration compared with the whole CAP37 protein, in words",[3],less than the migration obtained with the whole protein
same,"migration of HCECs vs buffer control, in words",[3]; peptide at 10^−6 M and 10^−8 M,significantly increase migration of HCECs
(AEEP)-(AEEP)-RRRRGTRCQVAGWGSWRSGGRLSRFPRFVNVR ([PEG2][PEG2]RRRRGTRCQVAGWGSWRSGGRLSRFPRFVNVR) [120-146WR-5RMP],predicted killing capabilities,[1],superior killing capabilities
same,bactericidal effectiveness concluded by extrapolation,[1],highly effective
GTRCQVAGWGSQHSGGRLSRFPRFVNV (derivative of peptide of Homo sapiens CAP37 protein) [Peptide 120-146QH],"activity in in vitro killing assays, in words","[1]; FIG. 14, pH 5.5, 180 minutes",relatively inactive
same,"HCEC migration compared with the whole CAP37 protein, in words",[3],comparable to the migration obtained with the whole CAP37 protein
same,"migration of HCECs vs buffer control, in words","[3]; peptide at 10^−4 M, 10^−6 M, 10^−8 M, and 10^−10 M",significantly increase migration of HCECs
CO/N=C(\C(=O)N[C@@H]1C(=O)N2C(C(=O)O)=C(COC(C)=O)CS[C@H]12)c1csc(N)n1 [Cefotaxime],"bactericidal impact on growth curve, in words",[4]; Cefotaxime alone at 2.8 μg/ml,very little bactericidal impact
same,MIC,[4]; [7],15 µg/mL
(AEEP)-(AEEP)-RRRRGTRCQVAGWGSQHSGGRLSRFPRFVNVR ([PEG2][PEG2]RRRRGTRCQVAGWGSQHSGGRLSRFPRFVNVR) [120-146QH-5RMP],reduction in CFU,"[1]; FIG. 14, pH 5.5, 180 minutes, even at the lower concentration (75 μg/ml)",~6 log
same,Mean Wound Healing (%),[5]; Day 0,0.0%
same,Mean Wound Healing (%),[5]; Day 3,22.5%
same,Mean Wound Healing (%),[5]; Day 5,34.1%
same,Mean Wound Healing (%),[5]; Day 7,64.1%
same,Mean Wound Healing (%),[5]; Day 10,93.7%
same,Mean Wound Healing (%),[5]; Day 14,98.0%
same,"percentage of wound healing vs saline control, in words","[5]; days 10 and 14 post-wounding, 3 mg/ml",significant (p<0.05) increase in the percentage of wound healing
same,"epidermal resurfacing and maturation vs saline control, in words",[6]; day 14 post-wounding,greater extent of epidermal resurfacing and maturation of the epidermis
same,"Angiogenesis, mean histopathology score",[6]; [8],1.3
same,"Epithelization, mean histopathology score",[6]; [8],4.0
same,"Granulation, mean histopathology score",[6]; [8],4.0
same,"Inflammation, mean histopathology score",[6]; [8],0.5
C[C@H]1COc2c(N3CCN(C)CC3)c(F)cc3c(=O)c(C(=O)O)cn1c23 [Levofloxacin],MIC,[4]; [7],15 µg/mL
same,MIC,"[4]; in the presence of 3.04 μg/ml of peptide BCC02-5RMP, read-out: MIC of Levofloxacin with peptide",3.5 µg/mL
